Laboratory results published in ChEMBL document CHEMBL3886292, “Functionally selective ligands of dopamine D2 receptors” (2015).

Assays:
D(2) dopamine receptor [1] = target: T1, D(2) dopamine receptor (Homo sapiens, UniProt P14416); test: cAMP GloSensor Assay: HEK293T cells co-expressing the cAMP biosensor GloSensor-22F (Promega) and hD2 receptors were seeded (10,000 cells/20 ul/well) into white, clear-bottom, tissue culture plates in HBSS, 10% FBS, 20 mM HEPES, pH 7.4. After a one- to two-hour recovery, cells were treated with 10 ul of 3x test or reference drug prepared in HBSS, 10% FBS, 20 mM HEPES, pH 7.4. After 30 minutes, cells were challenged with 10 ul of 1,200 nM (4x) isoproterenol in 8% (4x) GloSensor reagent. Luminescence per well per second was read on a Wallac TriLux microbeta plate counter. Data were normalized to the isoproterenol response (100%) and the maximal quinpirole-induced inhibition thereof (0%) and regressed using the sigmoidal dose-response function built into GraphPad Prism 4.0.; format: functional, cell-based, HEK-293T
T1 sequence (P14416 whole entry): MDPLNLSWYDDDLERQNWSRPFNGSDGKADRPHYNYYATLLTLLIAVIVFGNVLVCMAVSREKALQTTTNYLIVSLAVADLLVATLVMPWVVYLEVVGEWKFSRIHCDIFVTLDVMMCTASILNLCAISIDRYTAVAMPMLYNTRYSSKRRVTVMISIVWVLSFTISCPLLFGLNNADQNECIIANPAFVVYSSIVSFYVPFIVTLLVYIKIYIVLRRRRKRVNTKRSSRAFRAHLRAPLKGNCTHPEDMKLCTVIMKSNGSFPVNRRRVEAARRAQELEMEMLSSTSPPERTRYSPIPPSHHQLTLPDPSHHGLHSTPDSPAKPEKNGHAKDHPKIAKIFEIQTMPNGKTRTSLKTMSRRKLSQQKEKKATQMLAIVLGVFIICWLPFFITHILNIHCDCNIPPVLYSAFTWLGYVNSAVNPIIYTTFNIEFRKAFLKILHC

D(2) dopamine receptor [2] = target: T1, D(2) dopamine receptor; test: Beta-Arrestin Recruitment (Tango) Assay: Recruitment of β-arrestin to agonist-stimulated D2 receptors was performed using a previously described Tango-type assay (Barnea et al., Proc. Natl. Acad. Sci. USA 105:64 (2008)). Briefly, HTLA cells stably expressing β-arrestin-TEV protease and a tetracycline transactivator-driven luciferase were plated in 15-cm dishes in DMEM containing 10% fetal bovine serum and transfected (via calcium phosphate) with 20 μg of a D2V2-TCS-tTA construct (Barnea et al., Proc. Natl. Acad. Sci. USA 105:64 (2008)). The next day, cells were plated in white, clear-bottom, 384-well plates (Greiner, 10,000 cells/well, 50 μl/well) in DMEM containing 1% dialyzed fetal bovine serum. The following day, the cells were challenged with 10 μl/well of reference agonist (6 μM) or D2 test ligand (6 μM)±reference agonist prepared in HBS, 20 mM HEPES, pH 7.4, 18% DMSO (final ligand concentrations were 1 μM, final DMSO concentration was 3%).; format: functional, cell-based

COc1ccccc1N1CCCN(CCCCOc2ccc3c(n2)NC(=O)CC3)CC1
EC50 (D(2) dopamine receptor [1]): 222 nM
EC50 (D(2) dopamine receptor [2]): 6.1 nM
